Results taken from patent US20250188030A1, “Biphenyl and Phenylpyridine Compounds” (Pfizer Inc., priority 2023, published 2025).
Like-named read-outs stand apart in the source and are kept apart here.

Tests used:
KAT2A = KAT2A (Homo sapiens (Human), UniProt Q92830); assay: KAT2A acetyltransferase biochemical assay (RapidFire mass spectrometry, AcCoA to CoA)
H3K9AC (HT1080 cells) = assay: H3K9AC Sandwich ELISA Assay in HT1080 cells (KAT2A primary cell-based screening assay); design: species or system Human
Method: Human fibrosarcoma cell line HT1080 was obtained from American Type Culture Collection (ATCC), Manassas, VA USA, Cat. HT-1080 (ATCC® CCL-121™). Cells were cultured in MEM (Thermo Fisher Scientific/Gibco Life Technologies Cat. #11-095-080) plus 10% (v/v) FBS (Thermo Fisher Scientific/Gibco Life Technologies Cat. #26140-079) and 1% Penicillin-Streptomycin (Thermo Fisher Scientific/Gibco Life Technologies Cat. #15070063) at 37° C. in 5% CO2.
HT1080 cells were trypsinized, cell viability count performed, and cells suspended in complete media at 100,000 cells/ml. Cells were seeded (100 μl/well) into Greiner Bio-One CELLSTAR 96-well polystyrene flat bottom cell culture microplate (Thermo Fisher Scientific Cat. #07-000-162) at a density of 10,000 cells/well. Cells were incubated for 16 hours at 37° C. at 5% CO2. Compound dilution plates were prepared in 96-well, clear U-bottom, polypropylene plates (Corning 3365) in 100% DMSO at 10 mM stock concentration in duplicate, using 10-point serial dilution (1:3). Compounds were diluted to 1:200 in growth medium and 25 μl from intermediate compound plates were added to each well of the cell plates using a Beckman FX liquid handling system such that the highest compound concentration tested was 10 μM final, with a 0.1% final DMSO concentration in the total volume of 125 μl. Plates were incubated for 24 hours at 37° C. and 5% CO2. Plates were centrifuged at 2500 rpm for 5 minutes and medium was removed. 100 μL 0.4N HCL (Thermo Fisher Scientific Cat #SA56-1) was added to each well and plates were shaken for 60 minutes at 4C to lyse cells. 38ul 0.4N Sodium phosphase dibasic pH12.5 (Thermo Fisher Scientific Cat #S375-212) containing 2 mM Sodium Butyrate (Millipore TR1008G) and 3 mM Phenylmethanesulfonyl-fluoride (Sigma 93482) was added to each well to neutralize lysates.
Cell lysate plates were mixed for 5 minutes at room temperature on shaker and immediately frozen at −80C overnight. Cell lysates were thawed and 50 μL/well was transferred to ELISA plates (Total Histone H3 mouse (Cell Signaling Technology Cat #14269) mAb-coated Corning 1×8 strip-well, white, 96-well plates (Corning 2485)). After 2 hours room temperature incubation, plates were washed six times with PBS/0.05% Tween Wash Buffer using a BioTek plate washer. 50 μL of Histone H3K9AC rabbit detection mAb (Cell Signaling Technology Cat #9649S) diluted 1:1000 in blocking buffer (Thermo Fisher Scientific Cat #37542) was added to each well and incubated for 2 hours at room temperature. After washing, 50 μL anti-rabbit IgG, HRP-Linked antibody (Cell Signaling Technology Cat #7074) diluted 1:1000 in blocking buffer was added to each well and incubated for 60 minutes at room temperature. Following incubation, plates were washed as described above. 50 μL of luminescent GLO substrate reagent (R&D System Cat #DY993) was added to each well and incubated for 10 minutes at room temperature. Plates were read on the PHERAstar plate reader using the 96-well with Luminescent reading mode. IC50 values were calculated using a four-parameter fit with GraphPad Prism version 9.5.1 or in-house modified IDBS ActivityBase data analyzing package.

[1] = read-out: KAT2A Ki at 1 μM AcCoA, 5 μM H3 1-21 peptide, 0.5 nM KAT2A, 90-minute reaction
[2] = KAT2A Ki at 1 μM AcCoA, 5 μM H3 1-21 peptide, 0.5 nM KAT2A, 90-minute reaction
[3] = Homo sapiens, HT-1080, H3K9AC sandwich ELISA

Chain of KAT2A (Q92830 whole entry): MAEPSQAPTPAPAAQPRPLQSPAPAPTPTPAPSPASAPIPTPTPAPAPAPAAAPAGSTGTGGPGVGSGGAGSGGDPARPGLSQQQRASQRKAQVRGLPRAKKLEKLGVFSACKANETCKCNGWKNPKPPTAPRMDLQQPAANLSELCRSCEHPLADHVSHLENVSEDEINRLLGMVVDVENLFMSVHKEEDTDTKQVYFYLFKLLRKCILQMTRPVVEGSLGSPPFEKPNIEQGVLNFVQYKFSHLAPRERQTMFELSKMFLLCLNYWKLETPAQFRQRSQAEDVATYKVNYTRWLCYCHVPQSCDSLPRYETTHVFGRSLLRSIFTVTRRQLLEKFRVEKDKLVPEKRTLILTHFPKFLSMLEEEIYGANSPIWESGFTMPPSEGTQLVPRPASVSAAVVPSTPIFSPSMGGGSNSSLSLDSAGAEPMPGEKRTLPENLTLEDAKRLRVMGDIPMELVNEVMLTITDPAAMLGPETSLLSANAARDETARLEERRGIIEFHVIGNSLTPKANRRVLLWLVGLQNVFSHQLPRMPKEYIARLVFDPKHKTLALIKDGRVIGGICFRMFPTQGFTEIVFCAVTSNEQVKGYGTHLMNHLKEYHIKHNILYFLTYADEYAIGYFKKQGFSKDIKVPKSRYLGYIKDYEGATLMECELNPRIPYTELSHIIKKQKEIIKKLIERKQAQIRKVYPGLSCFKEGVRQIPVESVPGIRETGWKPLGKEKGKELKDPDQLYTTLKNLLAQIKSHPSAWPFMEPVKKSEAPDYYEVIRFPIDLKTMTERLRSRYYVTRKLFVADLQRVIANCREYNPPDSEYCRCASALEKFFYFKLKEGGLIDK

| Structure (SMILES) | Ki (KAT2A; [1]) [nM] | IC50 (H3K9AC (HT1080 cells); H3K9AC sandwich ELISA) [nM] | Ki (KAT2A; [2]) [nM] | IC50 (H3K9AC (HT1080 cells); [3]) [nM] |
| --- | --- | --- | --- | --- |
| O=C(O)Cc1ccc(O[C@@H]2CC[C@@H](NC(=O)[C@@]3(F)CNC4(CCCC4)C3)C2)c(-c2cccc(F)c2C2CCC2)c1 (single isomer, unassigned) [Example A26] | 29.1 | 95.6 |  |  |
| CC(C)(C(=O)O)c1ccc(O[C@@H]2CC[C@@H](NC(=O)[C@@]3(F)CNCC4(CCC4)C3)C2)c(-c2cccc(F)c2C2CCC2)c1 (single isomer, unassigned) [Example A28] | 1.41 | 53.6 |  |  |
| O=C(O)c1ccc(O[C@@H]2CC[C@@H](NC(=O)[C@@]3(F)CNCC4(CCC4)C3)C2)c(-c2cccc(F)c2C2CCC2)c1 (single isomer, unassigned) [Example A33] | > 99.9 | > 1000 |  |  |
| O=C(O)c1ccc(O[C@@H]2CC[C@@H](NC(=O)[C@@]3(F)CNC4(CCCC4)C3)C2)c(-c2cccc(F)c2C2CCC2)c1 (single isomer, unassigned) [Example A35] | > 99.9 | > 1000 |  |  |
| CC1(C)CNC[C@](F)(C(=O)N[C@@H]2CC[C@@H](Oc3ccc(C(=O)O)cc3-c3cccc(F)c3C3CCC3)C2)C1 (single isomer, unassigned) [Example A37] | 0.02 | > 1000 |  |  |
| CCS(=O)(=O)NC(=O)C(C)(C)c1ccc(O[C@@H]2CC[C@@H](NC(=O)C3(F)CNC4(CCC4)C3)C2)c(-c2cccc(F)c2C2CCC2)c1 (single isomer, unassigned) [Example B1] |  | 562 | 80.5 |  |
| CC(C)(C(=O)NS(=O)(=O)N1CC(F)C1)c1ccc(O[C@@H]2CC[C@@H](NC(=O)[C@]3(F)CNC4(CCC4)C3)C2)c(-c2cccc(F)c2C2CCC2)c1 (single isomer, unassigned) [Example B6] | 746 |  |  | > 1000 |
| CN1C[C@@](F)(C(=O)N[C@@H]2CC[C@@H](Oc3ccc(C(C)(C)C(=O)NS(C)(=O)=O)cc3-c3cccc(F)c3C3CCC3)C2)CC1(C)C (single isomer, unassigned) [Example B8] | 716 |  |  | > 1000 |
| CC(C)(C(=O)NS(=O)(=O)N1CC(F)(F)C1)c1ccc(O[C@@H]2CC[C@@H](NC(=O)[C@]3(F)CNC4(CCC4)C3)C2)c(-c2cccc(F)c2C2CCC2)c1 (single isomer, unassigned) [Example B10] | 0.15 |  |  | 15.7 |
| CC(C)S(=O)(=O)NC(=O)C(C)(C)c1ccc(O[C@@H]2CC[C@@H](NC(=O)[C@@]3(F)CNC4(CCCC4)C3)C2)c(-c2cccc(F)c2C2CCC2)c1 (single isomer, unassigned) [Example B24] | 0.09 |  |  | 0.9 |
| CCS(=O)(=O)NC(=O)C(C)(C)c1ccc(O[C@@H]2CC[C@@H](NC(=O)[C@@]3(F)CNCC4(CCC4)C3)C2)c(-c2cccc(F)c2C2CCC2)c1 (single isomer, unassigned) [Example B32] | 0.85 | 18.2 |  |  |
| CC1(C)C[C@](F)(C(=O)N[C@@H]2CC[C@@H](Oc3ccc(C(C)(C)C(=O)NS(=O)(=O)N4CCC4)cc3-c3cccc(F)c3C3CCC3)C2)CN1 (single isomer, unassigned) [Example C8] | 13.6 |  |  | 142 |
| CC(C)(C(=O)NS(C)(=O)=O)c1ccc(O[C@@H]2CC[C@@H](NC(=O)[C@@]3(F)CNC4(CCC4)C3)C2)c(-c2cccc(F)c2C2CC2)c1 (single isomer, unassigned) [Example C13] | 23.4 |  |  | 942 |
| CC(C)(C(N)=O)c1ccc(O[C@@H]2CC[C@@H](NC(=O)[C@]3(F)CNC4(CCC4)C3)C2)c(-c2cccc(F)c2C2CCC2)c1 (single isomer, unassigned) [Example C15] | 1270 |  |  | > 1000 |
| CCS(=O)(=O)NC(=O)Cc1ccc(O[C@@H]2CC[C@@H](NC(=O)[C@@]3(F)CNC4(CCC4)C3)C2)c(-c2cccc(F)c2C2CCC2)c1 (single isomer, unassigned) [Example C32] | 4.51 |  |  | 40.8 |
| CC(C)S(=O)(=O)NC(=O)Cc1ccc(O[C@@H]2CC[C@@H](NC(=O)[C@]3(F)CNC4(CCC4)C3)C2)c(-c2cccc(F)c2C2CCC2)c1 (single isomer, unassigned) [Example C41] |  | 39.8 | 4.1 |  |
| CCc1c(F)cccc1-c1cc(C(C)(C)C(=O)NS(=O)(=O)C(C)C)ccc1O[C@@H]1CC[C@@H](NC(=O)[C@@]2(F)CNCC(C)(C)C2)C1 (single isomer, unassigned) [Example C44] | > 99.9 | > 1000 |  |  |
| CCc1c(F)cccc1-c1cc(CC(=O)NS(=O)(=O)C2(C)CC2)ccc1O[C@@H]1CC[C@@H](NC(=O)[C@@]2(F)CNCC(C)(C)C2)C1 (single isomer, unassigned) [Example C56] | > 99.9 | > 1000 |  |  |
| CCS(=O)(=O)NC(=O)Cc1ccc(O[C@@H]2CC[C@@H](NC(=O)[C@@]3(F)CNCC4(CCC4)C3)C2)c(-c2cccc(F)c2C2CCC2)c1 (single isomer, unassigned) [Example C59] | 12.1 | 440 |  |  |
| CC1(S(=O)(=O)NC(=O)Cc2ccc(O[C@@H]3CC[C@@H](NC(=O)[C@@]4(F)CNC5(CCCC5)C4)C3)c(-c3cccc(F)c3C3CCC3)c2)CC1 (single isomer, unassigned) [Example C69] | 0.04 |  |  | 0.6 |
| CCS(=O)(=O)NC(=O)Cc1ccc(O[C@@H]2CC[C@@H](NC(=O)[C@@]3(F)CNC4(CCCC4)C3)C2)c(-c2cccc(F)c2C2CCC2)c1 (single isomer, unassigned) [Example C70] | 0.04 | 73.5 |  |  |
| CCS(=O)(=O)NC(=O)Cc1ccc(O[C@@H]2CC[C@@H](NC(=O)[C@@]3(F)CNC4(CCCC4)C3)C2)c(-c2cccc(F)c2C2CCC2)c1 (single isomer, unassigned) [Example C71] | 0.01 | 1 |  |  |
| CCc1c(F)cccc1-c1cc(CC(=O)NS(=O)(=O)C(C)C)ccc1O[C@@H]1CC[C@@H](NC(=O)[C@@]2(F)CNC3(CCCC3)C2)C1 (single isomer, unassigned) [Example C72] | 45.4 | > 1000 |  |  |
| CCc1c(F)cccc1-c1cc(CC(=O)NS(=O)(=O)C(C)C)ccc1O[C@@H]1CC[C@@H](NC(=O)[C@@]2(F)CNC3(CCCC3)C2)C1 (single isomer, unassigned) [Example C73] | 0.05 | 4.8 |  |  |
| CC(C)c1ccccc1-c1cc(CC(=O)NS(=O)(=O)C(C)C)ccc1O[C@@H]1CC[C@@H](NC(=O)[C@@]2(F)CNCC(C)(C)C2)C1 (single isomer, unassigned) [Example C74] | > 99.9 | > 1000 |  |  |
| CC(C)c1ccccc1-c1cc(CC(=O)NS(=O)(=O)C(C)C)ccc1O[C@@H]1CC[C@@H](NC(=O)[C@@]2(F)CNCC(C)(C)C2)C1 (single isomer, unassigned) [Example C75] | 0.17 | 4.5 |  |  |
| CC(C)S(=O)(=O)NC(=O)Cc1ccc(O[C@@H]2CC[C@@H](NC(=O)[C@@]3(F)CNCC(C)(C)C3)C2)c(-c2cccc(F)c2C2CCC2)c1 (single isomer, unassigned) [Example C76] | 46 | 485 |  |  |
